SMILES strings stand for the structures. Calls of active or inactive are those of the source. No cut-off for these calls is given here.

In ChEMBL document CHEMBL5113509, “Synthesis and evaluation of 3'- and 4'-substituted cyclohexyl noviomimetics that modulate mitochondrial respiration” (Bioorg Med Chem, 2022) one finds Activity data, which are given here for 52 molecules.

Test [1] relates to N2a. Kind of test: Cytoprotective activity against mouse N2a cells assessed as increase in mitochondrial ATP production at 100 to 1000 nM measured by Seahorse extracellular flux analyzer based assay. The test is classed as functional, cell-based. The following applies: dose 100-1000 nM.
In test [2] the test system is N2a. Kind of test: Cytoprotective activity against mouse N2a cells assessed as decrease in mitochondrial ATP production at 100 to 1000 nM measured by Seahorse extracellular flux analyzer based assay. To be noted: dose 100-1000 nM. The test is classed as functional, cell-based.
The next test is filed under the species Homo sapiens. Kind of test: Disruption of HSP90 alpha (unknown origin) and PPID (unknown origin) at 50 uM measured after 1 hr by AlphaLISA assay relative to control. In general terms: Bead proximity is the source of the signal in Alpha formats.

As to `CC(=O)NCCc1ccc(O[C@H]2CC[C@@H](SCc3ccccc3)CC2)cc1-c1cccc(F)c1`, the outcome in the test on N2a [1] was Active.
As for `CC(=O)NCCc1ccc(O[C@H]2CC[C@@H](Oc3cccc(Cl)c3)CC2)cc1-c1cccc(F)c1`, the outcome with N2a [2] was Active. The Activity in the test filed under Homo sapiens is greater than 50%.
Take `CC(=O)NCCc1ccc(O[C@H]2CC[C@H](Oc3ccc(Cl)cc3Cl)CC2)cc1-c1cccc(F)c1`: the outcome with N2a [1] was Active. This molecule gave an Activity in the test listed under Homo sapiens greater than 50%.
Turning to `CC(=O)NCCc1ccc(O[C@@H]2CCC[C@@H](OCc3ccccc3)C2)cc1-c1cccc(F)c1`, in the test with N2a [1], the result was Active. For the same molecule, in the test filed under Homo sapiens, the Activity is less than 50%.
In the case of `CC(=O)NCCc1ccc(O[C@H]2CC[C@@H](Nc3ccccc3)CC2)cc1-c1cccc(F)c1`, the outcome with N2a [1] was Active. In addition, the Activity in the test listed under Homo sapiens was greater than 80%.
Regarding `CC(=O)NCCc1ccc(O[C@H]2CC[C@H](Oc3cccc(Cl)c3)CC2)cc1-c1cccc(F)c1`, in the test with N2a [2], the result was Active. The molecule further gave an Activity in the test listed under Homo sapiens greater than 50%.
For `CC(=O)NCCc1ccc(O[C@@H]2CCC[C@H](Sc3ccccc3)C2)cc1-c1cccc(F)c1`, the result in the test with N2a [1] was Active. The same molecule gave an Activity in the test filed under Homo sapiens greater than 50%.
With `O[C@H]1CC[C@@H](Oc2cccc(Cl)c2)CC1`, in the test with N2a [1], the outcome was Active.
As to `CC(=O)NCCc1ccc(O[C@H]2CC[C@H](Oc3ccccc3)CC2)cc1-c1cccc(F)c1`, the result with N2a [1] was Active. In addition, the Activity in the test listed under Homo sapiens is greater than 50%.
On to `CC(=O)NCCc1ccc(O[C@H]2CCC[C@@H](SCc3ccccc3)C2)cc1-c1cccc(F)c1`, for which the result in the test with N2a [1] was Active.
Same read-out and setting: as for `CO[C@@H]1[C@@H](OC(N)=O)[C@@H](O)[C@H](Oc2ccc3c(O)c(NC(=O)c4ccc(O)c(CC=C(C)C)c4)c(=O)oc3c2C)OC1(C)C`, the entry is “Active”.
On to `CC(=O)NCCc1ccc(O[C@H]2CC[C@@H](S(=O)(=O)Cc3ccccc3)CC2)cc1-c1cccc(F)c1`, for which the result in the test with N2a [1] was Active. Moreover, the Activity in the test filed under Homo sapiens was greater than 50%.
Take `CC(=O)NCCc1ccc(O[C@H]2CC[C@@H](Oc3ccccc3Cl)CC2)cc1-c1cccc(F)c1`: the result with N2a [1] was Active. The same molecule yielded an Activity in the test filed under Homo sapiens greater than 50%.
For the molecule `CC(=O)NCCc1ccc(O[C@H]2CC[C@@H](OCc3ccccc3)CC2)cc1-c1cccc(F)c1`, the result in the test on N2a [1] was Active.
Turning to `CC(=O)NCCc1ccc(O[C@H]2CC[C@H](S(=O)(=O)Cc3ccccc3)CC2)cc1-c1cccc(F)c1`, the outcome in the test on N2a [1] was Active. The Activity in the test filed under Homo sapiens is greater than 50%.
The matching figures for `CC(=O)NCCc1ccc(O[C@H]2CC[C@@H](Oc3ccccc3)CC2)cc1-c1cccc(F)c1`: “Active” and greater than 50%.
As to `CC(=O)NCCc1ccc(O[C@H]2CCC[C@@H](Nc3ccccc3)C2)cc1-c1cccc(F)c1`, the result in the test on N2a [1] was Active. The same molecule returned an Activity in the test listed under Homo sapiens greater than 80%.
Take `O[C@H]1CC[C@H](Oc2ccc(Cl)cc2)CC1`: the result in the test with N2a [1] was Active.
Take `CC(=O)NCCc1ccc(O[C@H]2CCC[C@@H](Oc3ccccc3)C2)cc1-c1cccc(F)c1`: the outcome in the test with N2a [1] was Active. For the same molecule, in the test filed under Homo sapiens, the Activity was greater than 50%.
For the molecule `CC(=O)NCCc1ccc(O[C@@H]2CCC[C@@H](Oc3ccccc3)C2)cc1-c1cccc(F)c1`, the result with N2a [1] was Active. Also, the Activity in the test listed under Homo sapiens is greater than 50%.
Regarding `O[C@H]1CC[C@@H](Oc2ccc(Cl)cc2Cl)CC1`, the outcome with N2a [1] was Active.
As to `CC(=O)NCCc1ccc(O[C@H]2CC[C@@H](Oc3ccc(Cl)cc3Cl)CC2)cc1-c1cccc(F)c1`, the outcome with N2a [1] was Active. Further, the Activity in the test listed under Homo sapiens was greater than 50%.
For `CC(=O)NCCc1ccc(O[C@H]2CC[C@@H](N(C)c3ccccc3)CC2)cc1-c1cccc(F)c1`, the result with N2a [1] was Active. Also, in the test filed under Homo sapiens, the Activity is less than 50%.
In the case of `CC(=O)NCCc1ccc(OC2CCC(Oc3ccccc3)[C@H](O)[C@@H]2O)cc1-c1cccc(F)c1` (stereo partly drawn), the result in the test with N2a [1] was Active.
Take `CC(=O)NCCc1ccc(O[C@H]2CC[C@@H](Oc3ccc(Cl)cc3)CC2)cc1-c1cccc(F)c1`: in the test on N2a [2], the result was Active. The same molecule displayed an Activity in the test listed under Homo sapiens greater than 50%.
Regarding `CC(=O)NCCc1ccc(O[C@H]2CCC[C@@H](Cc3ccccc3)C2)cc1-c1cccc(F)c1`, in the test with N2a [1], the outcome was Active. In addition, the Activity in the test filed under Homo sapiens was greater than 50%.
Regarding `CC(=O)NCCc1ccc(O[C@@H]2CCC[C@@H](Nc3ccccc3)C2)cc1-c1cccc(F)c1`, in the test with N2a [1], the result was Active. The Activity in the test filed under Homo sapiens was less than 50%.
As to `CC(=O)NCCc1ccc(O[C@H]2CCC[C@@H](Sc3ccccc3)C2)cc1-c1cccc(F)c1`, the result in the test on N2a [1] was Active. The molecule also showed an Activity in the test filed under Homo sapiens greater than 50%.
As for `CC(=O)NCCc1ccc(O[C@H]2CC[C@@H](C(F)(F)Cc3ccccc3)CC2)cc1-c1cccc(F)c1`, in the test on N2a [1], the result was Active. Also, the Activity in the test listed under Homo sapiens is greater than 50%.
Take `CC(=O)NCCc1ccc(O[C@H]2CC[C@H](Oc3ccc(Cl)cc3)CC2)cc1-c1cccc(F)c1`: in the test on N2a [2], the outcome was Active. In the test filed under Homo sapiens, the Activity was greater than 50%.
`CC(=O)NCCc1ccc(O[C@H]2CC[C@H](Oc3ccccc3Cl)CC2)cc1-c1cccc(F)c1`: the result in the test with N2a [1] was Active. Further, the Activity in the test filed under Homo sapiens is greater than 50%.
For the molecule `CC(=O)NCCc1ccc(O[C@H]2CC[C@@H](Sc3ccccc3)CC2)cc1-c1cccc(F)c1`, the result with N2a [1] was Active. Further, the Activity in the test filed under Homo sapiens was greater than 50%.
In the case of `O[C@H]1CC[C@H](Oc2ccc(Cl)cc2Cl)CC1`, the result in the test on N2a [1] was Active.
For `CC(=O)NCCc1ccc(O[C@H]2CC[C@H](C(F)(F)Cc3ccccc3)CC2)cc1-c1cccc(F)c1`, the result in the test with N2a [1] was Active. The Activity in the test filed under Homo sapiens was greater than 50%.
The matching figures for `CC(=O)NCCc1ccc(O[C@H]2CC[C@@H](S(=O)(=O)c3ccccc3)CC2)cc1-c1cccc(F)c1`: “Active” and greater than 50%.
On to `CC(=O)NCCc1ccc(O[C@@H]2CCC[C@@H](N(C)c3ccccc3)C2)cc1-c1cccc(F)c1`, for which, in the test with N2a [1], the result was Active. Besides, the Activity in the test filed under Homo sapiens was less than 50%.
For the molecule `CC(=O)NCCc1ccc(O[C@@H]2CCC[C@@H](CCc3ccccc3)C2)cc1-c1cccc(F)c1`, in the test with N2a [1], the outcome was Active. This molecule also displayed an Activity in the test filed under Homo sapiens greater than 50%.
The like results for `CC(=O)NCCc1ccc(O[C@H]2CC[C@H](N(C)c3ccccc3)CC2)cc1-c1cccc(F)c1` were, in that order, “Active” and less than 50%.
`CC(=O)NCCc1ccc(O[C@H]2CC[C@H](SCc3ccccc3)CC2)cc1-c1cccc(F)c1`: in the test on N2a [1], the result was Active. Besides, the Activity in the test listed under Homo sapiens was less than 50%.
As for `CC(=O)NCCc1ccc(O[C@H]2CCC[C@@H](N(C)c3ccccc3)C2)cc1-c1cccc(F)c1`, the result with N2a [1] was Active. Further, the Activity in the test filed under Homo sapiens is less than 50%.
Consider `CC(=O)NCCc1ccc(O[C@@H]2CCC[C@@H](Cc3ccccc3)C2)cc1-c1cccc(F)c1`, for which the outcome in the test on N2a [1] was Active. Also, in the test listed under Homo sapiens, the Activity was greater than 50%.
Consider `CC(=O)NCCc1ccc(O[C@H]2CCC[C@@H](OCc3ccccc3)C2)cc1-c1cccc(F)c1`, for which, in the test on N2a [1], the outcome was Active. This molecule gave an Activity in the test filed under Homo sapiens greater than 50%.
Consider `CC(=O)NCCc1ccc(O[C@H]2CC[C@H](Cc3ccccc3)CC2)cc1-c1cccc(F)c1`, for which, in the test on N2a [1], the outcome was Active. In addition, the Activity in the test listed under Homo sapiens was greater than 50%.
On to `O[C@H]1CC[C@H](Oc2cccc(Cl)c2)CC1`, for which the result with N2a [1] was Active.
In the case of `CC(=O)NCCc1ccc(O[C@H]2CC[C@@H](Cc3ccccc3)CC2)cc1-c1cccc(F)c1`, in the test with N2a [1], the outcome was Active. Further, the Activity in the test filed under Homo sapiens is greater than 50%.
The matching figures for `CC(=O)NCCc1ccc(O[C@H]2CC[C@H](Sc3ccccc3)CC2)cc1-c1cccc(F)c1`: “Active” and greater than 50%.
Turning to `CC(=O)NCCc1ccc(O[C@@H]2CCC[C@@H](SCc3ccccc3)C2)cc1-c1cccc(F)c1`, the result in the test on N2a [1] was Active. This molecule also gave an Activity in the test listed under Homo sapiens greater than 50%.
As to `CC(=O)NCCc1ccc(O[C@H]2CC[C@H](Nc3ccccc3)CC2)cc1-c1cccc(F)c1`, the outcome in the test on N2a [1] was Active. This molecule gave an Activity in the test filed under Homo sapiens of less than 50%.
Consider `CC(=O)NCCc1ccc(O[C@H]2CCC[C@@H](CCc3ccccc3)C2)cc1-c1cccc(F)c1`, for which the result with N2a [1] was Active. The Activity in the test filed under Homo sapiens is greater than 50%.
On to `CC(=O)NCCc1ccc(O[C@H]2CC[C@H](CCc3ccccc3)CC2)cc1-c1cccc(F)c1`, for which the outcome in the test on N2a [1] was Active. The molecule also displayed an Activity in the test filed under Homo sapiens greater than 50%.
Regarding `CC(=O)NCCc1ccc(O[C@H]2CC[C@H](S(=O)(=O)c3ccccc3)CC2)cc1-c1cccc(F)c1`, in the test on N2a [1], the result was Active. The Activity in the test listed under Homo sapiens is greater than 50%.
As to `O[C@H]1CC[C@@H](Oc2ccc(Cl)cc2)CC1`, in the test on N2a [1], the result was Active.
